The values below come from US20020192827A1, “Novel vector for C. glabrata and the use thereof” (priority 2000, published 2002).

The experiment concerns C. glabrata strain ATCC 200989. The experiment can be described thus: geneticin resistance growth test on -Ura medium, uninduced and copper-induced. Type of experiment: cell-based, Candida glabrata. How it is done:
C. C. glabrata strain with expression plasmid pFPG1 lacking or carrying the wildtype neomycin/kanamycin resistance gene (which confers resistance to the antibiotic geneticin), on -Ura media supplemented with 1 mg/ml geneticin.
C. C. glabrata strain with expression plasmid pFPG2 lacking or carrying the wildtype neomycin/kanamycin resistance gene (which confers resistance to the antibiotic geneticin), on -Ura media supplemented with 1 mg/ml geneticin.
The neomycin/kanamycin resistance gene from Tn903 confers resistance of C. glabrata to the antibiotic G418, geneticin (Cormack and Falkow, 1999). The pFPG1-NEO plasmid and empty pFPG1 as a control were transformed into C. glabrata strain ATCC 200989 and tested for geneticin resistance under uninduced and induced conditions (FIG. 3C). […] In this case, induction of the MT-1 promoter in pFPG1 was not absolutely necessary to obtain adequate expression of the NEO gene.
The NEO pFPG2 plasmid and empty pFPG2 as a control were transformed into C. glabrata strain ATCC 200989 and tested for geneticin resistance on -Ura medium under uninduced and induced conditions (FIG. 6).

Consider `CN[C@@H]1[C@@H](O)[C@@H](O[C@@H]2[C@@H](O)[C@H](O[C@H]3O[C@H]([C@@H](C)O)[C@@H](O)[C@H](O)[C@H]3N)[C@@H](N)C[C@H]2N)OC[C@]1(C)O` [geneticin], for which the “geneticin concentration required to suppress growth” value is, setting by setting: (strain ATCC 200989 with empty pFPG1 plasmid) “about 1 mg/ml”; (strain ATCC 200989 with empty pFPG2 plasmid, -Ura medium) “about 1 mg/ml”.
